PMC8346995, “Synthesis, Characterization, In Vitro Anticancer Potentiality, and Antimicrobial Activities of Novel Peptide–Glycyrrhetinic-Acid-Based Derivatives” (Molecules, 2021)
In brackets after ≈: the same amount, converted by molar mass. Residues, ends and D or L forms follow the SMILES beside them. *: point of attachment. X1 = CC1(C(=O)*)CCC2(C)CCC3(C)C(=CC(=O)C4C5(C)CCC(O)C(C)(C)C5CCC43C)C2C1

Key:
[1] = system: human colon HCT-116 cancer cell line; assay: MTT cytotoxicity assay, colon HCT-116 cancer cell line; conditions: for IC50: Homo sapiens, HCT-116, read-out: IC50 (µg/mL) ± SD HCT-116
Method: (§1) Accordingly, all the newly synthesized GA-based peptides except 1 and 6 were screened for their cytotoxicity against three different human cancer cell lines: MCF-7, HCT-116, and HepG-2 cell lines at different concentrations (10, 5, 2.5, 1.25, and 0.625 µg/mL).
(§2) Human breast MCF-7, colon HCT-116, and liver HepG-2 carcinoma cell line were taken from Vacsera (Giza, Egypt). The culture was retained in RPMI 1640 medium with 1% antibiotic–antimycotic mixture (25 μg/mL amphotericin B, 10,000 μg/mL streptomycin sulfate, and 10,000 U/mL potassium penicillin), 1% L-glutamine, and complemented by 10% heat inactivated fetal bovine serum. […] This experiment was carried out according to the reported MTT assay method, and the absorbance was measured at 595 nm.

[2] = system: Pseudomonas aeruginosa ATCC7853; assay: Well diffusion assay, Pseudomonas aeruginosa; format: cell-based
Method: (§3) The newly synthesized peptides 1–8 (compound 6 was not tested) was evaluated for their antimicrobial activity of against three pathogenic Gram-positive bacteria (Staphylococcus aureus ATCC25923, Streptococcus pneumoniaRCMB 010010, and Micrococcus Luteus), three pathogenic Gram-negative bacteria viz. Escherichia coli ATCC25922, Pseudomonas aeruginosa ATCC7853, and Proteus vulgaris RCMB 010085, and the yeast Candida albicans using the well diffusion method. […] The obtained data were documented for each derivative as the average diameter of the inhibition zones (IZ) in mm for the bacterial or the yeast growth around the discs (Table 2). […] Although Micrococcus Luteus bacteria is a normal commensal of human skin and the upper respiratory tract, it acts as an opportunistic pathogen and has been associated with various diseases including meningitis, septic arthritis, and endocarditis. […] Antimicrobial activity of the tested chemical peptides was determined by the well diffusion method for pathogenic bacteria having Gram-positive bacteria (Staphylococcus aureus ATCC25923, Streptococcus pneumonia, and Micrococcus luteus) and Gram-negative bacteria (Escherichia coli ATCC25922, Pseudomonas aeruginosa ATCC7853, and Proteus sp.) and Candida albicans as human pathogen yeast using the well diffusion method.

[3] = system: Staphylococcus aureus ATCC25923; assay: Well diffusion assay, Staphylococcus aureus; format: cell-based
Method: as §3

[4] = system: Escherichia coli ATCC25922; assay: Well diffusion assay, Escherichia coli; format: cell-based
Method: as §3

[5] = system: human breast MCF-7 cancer cell line; assay: MTT cytotoxicity assay, breast MCF-7 cancer cell line; format: cell-based; conditions: for IC50: Homo sapiens, MCF7, MTT, mean of three replicates, read-out: IC50 (µg/mL) ± SD MCF-7; for cytotoxicity percentage: MCF-7, 10 µg/mL
Method: as §1, §2

[6] = system: Streptococcus pneumonia RCMB 010010; assay: Well diffusion assay, Streptococcus pneumonia; format: cell-based; conditions: Streptococcus pneumonia RCMB 010010, well diffusion
Method: as §3

[7] = system: Micrococcus Luteus; assay: Well diffusion assay, Micrococcus Luteus; format: cell-based
Method: as §3

[8] = system: human liver cancer (HepG-2) cell line; assay: MTT cytotoxicity assay, liver HepG-2 cancer cell line; format: cell-based
Method: as §1, §2

[9] = system: Proteus vulgaris RCMB 010085; assay: Well diffusion assay, Proteus vulgaris; format: cell-based; conditions: Proteus vulgaris RCMB 010085, well diffusion
Method: as §3

[10] = system: Candida albicans; assay: Well diffusion assay, Candida albicans; format: cell-based
Method: as §3

[11] = system: human normal skin fibroblasts cell line BJ-1; assay: Cytotoxicity against normal skin fibroblasts BJ-1; format: cell-based; conditions: BJ-1, 10 µg/mL
Method: The frequency and severity of side effects to normal cells at therapeutic levels is one of the most critical factors that distinguish different anticancer drugs from each other. Accordingly, the GA peptides 1–8 were furthermore screened for their cytotoxicity at 10 µg/mL against the human normal skin fibroblasts cell line BJ-1 to determine their safety upon normal cells (Figure 4).

[12] = system: MCF-7 cells; assay: DNA fragmentation through DPA assay in MCF-7 cells; format: cell-based, human; conditions: treated MCF-7 cells; untreated 7.8%
Method: Caspases are a family of cysteine proteases that are responsible for launching the programmed cell death (apoptosis). […] Cell shrinkage, chromatin condensation, and DNA fragmentation are all apoptosis events, which need the involvement of caspase-7and caspase-3 [48, 54, 56].
Assessment of DNA fragmentation of the cells was done, as described by the reported method. Briefly, the cells were lysed for 15 min on ice with 0.5% (v/v) Triton X-100, 20 mM EDTA, and […] Tris (pH 8.0). Then, the cells were centrifuged to separate intact chromatin from DNA fragments for 20 min, at 27,000 Xg. Measurement of the amount of DNA was done using a diphenylamine reagent, and the optical density was measured at 600 nm.

For COC(=O)C(CC(C)C)NC(=O)CNC(=O)CNC(=O)C1(C)CCC2(C)CCC3(C)C(=CC(=O)C4C5(C)CCC(OC(=O)CNC(=O)CNC(=O)OC(C)(C)C)C(C)(C)C5CCC43C)C2C1 (stereo not shown) [Compound 8, Methyl 2-(2-(2-(10-(2-(2-(Tert-butoxycarbonylamino)acetamido)acetoxy)-2,4a,6a,6b,9,9,12a-heptamethyl-13-oxo-1,2,3,4,4a,5,6,6a,6b,7,8,8a,9,10,11,12,12a,12b,13,14b-icosahydropicene-2-carboxamido)acetamido)acetamido)-4-methylpentanoate], the cytotoxicity percentage ([1]; HCT-116, 10 µg/mL) was 97.10%, the IC50 [1] was 60.7 ± 0.6 µg/mL (≈ 65.5 µM) and the “Diameter of Inhibition Zone (mm)” value [2] was 14 ± 0.16 mm. For the same compound, the “Diameter of Inhibition Zone (mm)” value [3] was 13 ± 0.24 mm, the “Diameter of Inhibition Zone (mm)” value [4] was 15 ± 0.16 mm and the IC50 [5] was 6.9 ± 1.1 µg/mL (≈ 7.45 µM). For the same compound, the “Diameter of Inhibition Zone (mm)” value [6] was 12 ± 0.22 mm and the “Diameter of Inhibition Zone (mm)” value [7] was 30 ± 0.17 mm.
For CC(C)CC(NC(=O)CNC(=O)CNC(=O)C1(C)CCC2(C)CCC3(C)C(=CC(=O)C4C5(C)CCC(O)C(C)(C)C5CCC43C)C2C1)C(=O)O (stereo not shown) [Compound 7, 2-(2-(2-(10-Hydroxy-2,4a, 6a, 6b, 9,9, 12a-heptamethyl-13-oxo-1,2,3,4,4a, 5,6,6a, 6b, 7,8,8a, 9, 10, 11, 12, 12a, 12b, 13, 14b-icosahydropicene-2-carboxamido)acetamido)acetamido)-4-methylpentanoic Acid], the cytotoxicity percentage ([1]; HCT-116, 10 µg/mL) was 98.06%, the IC50 [1] was 3 ± 1.1 µg/mL (≈ 4.3 µM) and the “Diameter of Inhibition Zone (mm)” value [2] was 13 ± 0.14 mm. For the same compound, the cytotoxicity percentage ([8]; HepG-2, 10 µg/mL) was 96.76%, the IC50 ([8]; Homo sapiens, HepG2, MTT, mean of three replicates, read-out: IC50 (µg/mL) ± SD HepG-2) was 3.3 ± 0.1 µg/mL (≈ 4.73 µM) and the “Diameter of Inhibition Zone (mm)” value [4] was 15 ± 0.21 mm. The IC50 [5] was 3.7 ± 0.2 µg/mL (≈ 5.3 µM), the “Diameter of Inhibition Zone (mm)” value [7] was 30 ± 0.11 mm and the melting point was 210 to 212 °C. For the same compound, the “Diameter of Inhibition Zone (mm)” value [9] was 12 ± 0.14 mm.
In the case of CC(=O)N1CCN(c2ccc(OCC3COC(Cn4ccnc4)(c4ccc(Cl)cc4Cl)O3)cc2)CC1 (stereo not shown) [KC, ketoconazole, reference compound], the “Diameter of Inhibition Zone (mm)” value [10] is reported as 22.8 ± 0.10 mm.
For CCOC(=O)CNC(=O)CNC(=O)CNC(=O)CNC(=O)C1(C)CCC2(C)CCC3(C)C(=CC(=O)C4C5(C)CCC(O)C(C)(C)C5CCC43C)C2C1 (stereo not shown) [Compound 4, Ethyl 1-(10-Hydroxy-2,4a,6a,6b,9,9,12a-heptamethyl-13-oxo-1,2,3,4,4a,5,6,6a,6b,7,8,8a,9,10,11,12,12a,12b,13,14b-icosahydropicen-2-yl)-1,4,7,10-tetraoxo-2,5,8,11-tetraazatridecan-13-oate] (X1-GGGG-OEt), the IC50 [1] was 73 ± 1.4 µg/mL (≈ 100 µM), the cytotoxicity percentage ([1]; human, 10 µg/mL) was 84.80% and the “Diameter of Inhibition Zone (mm)” value [2] was 13 ± 0.16 mm. For the same compound, the “Diameter of Inhibition Zone (mm)” value [3] was 10 ± 0.13 mm, the “Diameter of Inhibition Zone (mm)” value [4] was 13 ± 0.15 mm and the IC50 [5] was 6.1 ± 0.4 µg/mL (≈ 8.39 µM). For the same compound, the “Diameter of Inhibition Zone (mm)” value [10] was 15 ± 0.12 mm, the “Diameter of Inhibition Zone (mm)” value [6] was 11 ± 0.24 mm and the “Diameter of Inhibition Zone (mm)” value [7] was 29 ± 0.13 mm. The melting point was 130 to 133 °C and the “Diameter of Inhibition Zone (mm)” value [9] was 12 ± 0.23 mm.
For CCCC(NC(=O)C(CC(C)C)NC(=O)OC(C)(C)C)C(=O)OC1CCC2(C)C(CCC3(C)C2C(=O)C=C2C4CC(C)(C(=O)NCC(=O)NCC(=O)OCC)CCC4(C)CCC23C)C1(C)C (stereo not shown) [Compound 2, 11-(2-(2-Ethoxy-2-oxoethylamino)-2-oxoethylcarbamoyl)-4,4,6a,6b,8a,11,14b-heptamethyl-14-oxo-1,2,3,4,4a,5,6,6a,6b,7,8,8a,9,10,11,12,12a,14,14a,14b-icosahydropicen-3-yl 2-(2-(tert-Butoxycarbonylamino)-4-methylpentanamido)pentanoate], the cytotoxicity percentage ([1]; HCT-116, 10 µg/mL) was 92.63%, the IC50 [1] was 70.3 ± 0.9 µg/mL (≈ 76 µM) and the “Diameter of Inhibition Zone (mm)” value [2] was 15 ± 0.25 mm. The “Diameter of Inhibition Zone (mm)” value [3] was 17 ± 0.11 mm, the “Diameter of Inhibition Zone (mm)” value [4] was 18 ± 0.14 mm and the IC50 [5] was 7.7 ± 1.3 µg/mL (≈ 8.32 µM). The “Diameter of Inhibition Zone (mm)” value [6] was 12 ± 0.82 mm, the “Diameter of Inhibition Zone (mm)” value [7] was 30 ± 0.13 mm and the melting point was 169 to 171 °C.
For CNC(C)C1CCC(N)C(OC2C(N)CC(N)C(OC3OCC(C)(O)C(NC)C3O)C2O)O1 (stereo not shown) [GM, gentamicin, reference compound], the “Diameter of Inhibition Zone (mm)” value [2] was 24.41 ± 0.18 mm, the “Diameter of Inhibition Zone (mm)” value [3] was 25.4 ± 0.18 mm and the “Diameter of Inhibition Zone (mm)” value [4] was 26.3 ± 0.15 mm. The “Diameter of Inhibition Zone (mm)” value [6] was 27.2 ± 0.80 mm, the “Diameter of Inhibition Zone (mm)” value [7] was 24.4 ± 0.72 mm and the “Diameter of Inhibition Zone (mm)” value [9] was 20.0 ± 0.30 mm.
In the case of CC1(C(=O)NCC(=O)NCC(=O)O)CCC2(C)CCC3(C)C(=CC(=O)C4C5(C)CCC(O)C(C)(C)C5CCC43C)C2C1 (stereo not shown) [Compound 3, 2-(2-(10-Hydroxy-2,4a,6a,6b,9,9,12a-heptamethyl-13-oxo-1,2,3,4,4a,5,6,6a,6b,7,8,8a,9,10,11,12,12a,12b,13,14b-icosahydropicene-2-carboxamido)acetamido)acetic acid], the cytotoxicity percentage ([1]; HCT-116, 10 µg/mL) is reported as 97.66%, the IC50 [1] is reported as 7.4 ± 0.4 µg/mL (≈ 12.7 µM) and the “Diameter of Inhibition Zone (mm)” value [2] is reported as 15 ± 0.18 mm. For the same compound, the “Diameter of Inhibition Zone (mm)” value [3] was 17 ± 0.32 mm, the “Diameter of Inhibition Zone (mm)” value [4] was 16 ± 0.31 mm and the IC50 [5] was 5.1 ± 0.7 µg/mL (≈ 8.72 µM). The “Diameter of Inhibition Zone (mm)” value [10] was 12 ± 0.23 mm, the “cytotoxic effect on normal cells BJ-1” value [11] was 2% and the “Diameter of Inhibition Zone (mm)” value [6] was 17 ± 0.21 mm. For the same compound, the “Diameter of Inhibition Zone (mm)” value [7] was 30 ± 0.25 mm, the melting point was 207 to 209 °C and the “Diameter of Inhibition Zone (mm)” value [9] was 17 ± 0.17 mm.
With COC(=O)C(CC(C)C)NC(=O)CNC(=O)CNC(=O)C1(C)CCC2(C)CCC3(C)C(=CC(=O)C4C5(C)CCC(O)C(C)(C)C5CCC43C)C2C1 (stereo not shown) [Compound 6, Methyl 2-(2-(2-(10-Hydroxy-2,4a,6a,6b,9,9,12a-heptamethyl-13-oxo-1,2,3,4,4a,5,6,6a,6b,7,8,8a,9,10,11,12,12a,12b,13,14b-icosahydropicene-2-carboxamido)acetamido)acetamido)-4-methylpentanoate] the cytotoxicity percentage ([1]; HCT-116, 10 µg/mL) was “weak effect”, the cytotoxicity percentage [5] was “weak cytotoxic effect” and the melting point was 170 to 172 °C.
In the case of CCOC(=O)CNC(=O)CNC(=O)C1(C)CCC2(C)CCC3(C)C(=CC(=O)C4C5(C)CCC(O)C(C)(C)C5CCC43C)C2C1 (stereo not shown) [Compound 1, Ethyl 2-(2-(10-Hydroxy-2,4a,6a,6b,9,9,12a-heptamethyl-13-oxo-1,2,3,4,4a,5,6,6a,6b,7,8,8a,9,10,11,12,12a,12b,13,14b-icosahydropicene-2-carboxamido)acetamido)acetate], the cytotoxicity percentage ([1]; HCT-116, 10 µg/mL) is reported as “weak effect”, the “Diameter of Inhibition Zone (mm)” value [2] is reported as 18 ± 0.15 mm and the “Diameter of Inhibition Zone (mm)” value [3] is reported as 15 ± 0.16 mm. The “Diameter of Inhibition Zone (mm)” value [4] was 20 ± 0.25 mm, the cytotoxicity percentage [5] was 65.3% and the “cytotoxic effect on normal cells BJ-1” value [11] was 7%. For the same compound, the “Diameter of Inhibition Zone (mm)” value [6] was 15 ± 0.16 mm, the “Diameter of Inhibition Zone (mm)” value [7] was 30 ± 0.21 mm and the melting point was 160 to 162 °C.
With COc1cc2c(c(OC)c1OC)-c1ccc(OC)c(=O)cc1[C@@H](NC(C)=O)CC2 [colchicine, reference compound] the “percentage of DNA fragmentation” value [12] was 40.7%.
